{
  "source": "patent US20090291938A1",
  "about": "(TAKEDA PHARMACEUTICAL COMPANY LIMITED, priority 2007, published 2009)",
  "data": [
    {"tested_on": "HT29 human colorectal adenocarcinoma cell line", "experiment": "cell proliferation assay (Cell Titer-Glo luminescent cell viability assay)", "assay_type": "cell-based", "conditions": "HT-29, 72 h, read-out: pIC50 (converted)", "procedure": "(§1) The cell culture and proliferation assay may be carried out as follows: the HT29 human colorectal adenocarcinoma cell line (ATCC, USA) was maintained in Dulbecco's Modified Eagle's Medium (Invitrogen, USA) supplemented with 10% fetal bovine serum (JRH, USA). The cell proliferation assay was carried out with the Cell Titer-Glo luminescent cell viability assay (Promega, USA) according to the manufacture's instruction after the 72 hr treatment of the cells in the presence of the compounds. The cell viability was shown as a percentage of DMSO treated cells.", "units": {"IC50": "nM"}, "values": [
      {"compound": "CC(C)Oc1cc(C(=O)NC2CCN(C)CC2)ccc1Nc1ncc2c(n1)N(C1CCCC1)CC(C)(C)C(=O)N2C", "note": "[Compound 122, 4-(9-cyclopentyl-5,7,7-trimethyl-6-oxo-6,7,8,9-tetrahydro-5H-pyrimido[4,5-b][1,4]diazepin-2-ylamino)-3-isopropoxy-N-(1-methylpiperidin-4-yl)benzamide]", "IC50": "> 10"},
      {"compound": "COc1cc(C(=O)NC2CCN(C)CC2)ccc1Nc1ncc2c(n1)N(C1CCCCC1)CC(C)(C)C(=O)N2C", "note": "[Compound 109, 4-(9-cyclohexyl-5,7,7-trimethyl-6-oxo-6,7,8,9-tetrahydro-5H-pyrimido[4,5-b][1,4]diazepin-2-ylamino)-3-methoxy-N-(1-methylpiperidin-4-yl)benzamide]", "IC50": "1 to 2.51"}
    ]},
    {"tested_on": "HT29 human colorectal adenocarcinoma cell line", "experiment": "cell proliferation assay (Cell Titer-Glo luminescent cell viability assay)", "assay_type": "cell-based", "conditions": "HT-29, cell proliferative assay, HT29 cells, 72 hr treatment, values given as ranges, read-out: pIC50 (converted)", "procedure": "as §1", "units": {"IC50": "nM"}, "values": [
      {"compound": "COc1cc(C(=O)N[C@@H]2CCCNC2)ccc1Nc1ncc2c(n1)N(C1CCCC1)CCC(=O)N2C", "note": "[Compound 49, (R)-4-(9-cyclopentyl-5-methyl-6-oxo-6,7,8,9-tetrahydro-5H-pyrimido[4,5-b][1,4]diazepin-2-ylamino)-3-methoxy-N-(piperidin-3-yl)benzamide]", "IC50": "> 10"},
      {"compound": "C=CC1(C)CN(C2CCCC2)c2nc(Nc3ccc(C(=O)N[C@@H]4CCCNC4)cc3OC)ncc2N(C)C1=O", "note": "(stereo partly drawn) [Compound 245, 4-(9-cyclopentyl-5,7-dimethyl-6-oxo-7-vinyl-6,7,8,9-tetrahydro-5H-pyrimido[4,5-b][1,4]diazepin-2-ylamino)-3-methoxy-N-((R)-piperidin-3-yl)benzamide]", "IC50": "3.16 to 10"},
      {"compound": "COc1cc(C(=O)NC2CCN(C)CC2)ccc1Nc1ncc2c(n1)N(C(C)C)CC(C)(C)C(=O)N2C", "note": "[Compound 155, 4-(9-isopropyl-5,7,7-trimethyl-6-oxo-6,7,8,9-tetrahydro-5H-pyrimido[4,5-b][1,4]diazepin-2-ylamino)-3-methoxy-N-(1-methylpiperidin-4-yl)benzamide]", "IC50": "3.16 to 10"},
      {"compound": "C=CC[C@H]1CN(C2CCCC2)c2nc(Nc3ccc(C(=O)N[C@@H]4CCCNC4)cc3OC)ncc2N(C)C1=O", "note": "[Compound 200, 4-((S)-7-allyl-9-cyclopentyl-5-methyl-6-oxo-6,7,8,9-tetrahydro-5H-pyrimido[4,5-b][1,4]diazepin-2-ylamino)-3-methoxy-N-((R)-piperidin-3-yl)benzamide]", "IC50": "1 to 2.51"},
      {"compound": "COc1cc(C(=O)NCCNC(C)=O)ccc1Nc1ncc2c(n1)N(C1CCCC1)CCC(=O)N2C", "note": "[Compound 43, N-(2-acetamidoethyl)-4-(9-cyclopentyl-5-methyl-6-oxo-6,7,8,9-tetrahydro-5H-pyrimido[4,5-b][1,4]diazepin-2-ylamino)-3-methoxybenzamide]", "IC50": "> 10"},
      {"compound": "C=CCC1(C)CN(C2CCCC2)c2nc(Nc3ccc(C(=O)NC4CCN(C)CC4)cc3OC)ncc2N(C)C1=O", "note": "(stereo not drawn) [Compound 221, 4-(7-allyl-9-cyclopentyl-5,7-dimethyl-6-oxo-6,7,8,9-tetrahydro-5H-pyrimido[4,5-b][1,4]diazepin-2-ylamino)-3-methoxy-N-(1-methylpiperidin-4-yl)benzamide]", "IC50": "1 to 2.51"},
      {"compound": "C=CC[C@H]1CN(C2CCCC2)c2nc(Nc3ccc(C(=O)N[C@H]4CCNC4)cc3OC)ncc2N(C)C1=O", "note": "[Compound 203, 4-((S)-7-allyl-9-cyclopentyl-5-methyl-6-oxo-6,7,8,9-tetrahydro-5H-pyrimido[4,5-b][1,4]diazepin-2-ylamino)-3-methoxy-N-((S)-pyrrolidin-3-yl)benzamide]", "IC50": "1 to 2.51"},
      {"compound": "COc1cc(C(=O)NC2CCN(C(=O)C3CC3)CC2)ccc1Nc1ncc2c(n1)N(C1CCCC1)CCC(=O)N2C", "note": "[Compound 73]", "IC50": "> 10"},
      {"compound": "COc1cc(C(=O)NC[C@@H]2CCCNC2)ccc1Nc1ncc2c(n1)N(C1CCCC1)CCC(=O)N2C", "note": "[Compound 63, (R)-4-(9-cyclopentyl-5-methyl-6-oxo-6,7,8,9-tetrahydro-5H-pyrimido[4,5-b][1,4]diazepin-2-ylamino)-3-methoxy-N-(piperidin-3-ylmethyl)benzamide]", "IC50": "> 10"},
      {"compound": "C=C[C@]1(C)CN(C2CCCC2)c2nc(Nc3ccc(C(=O)NC4CCN(C)CC4)cc3OC)ncc2N(C)C1=O", "note": "[Compound 240, (R)-4-(9-cyclopentyl-5,7-dimethyl-6-oxo-7-vinyl-6,7,8,9-tetrahydro-5H-pyrimido[4,5-b][1,4]diazepin-2-ylamino)-3-methoxy-N-(1-methylpiperidin-4-yl)benzamide]", "IC50": "3.16 to 10"},
      {"compound": "C#CCC1CN(C2CCCC2)c2nc(Nc3ccc(C(=O)NC4CCN(C)CC4)cc3OC)ncc2N(C)C1=O", "note": "(stereo not drawn) [Compound 209]", "IC50": "1 to 2.51"},
      {"compound": "COc1cc(C(N)=O)ccc1Nc1ncc2c(n1)N(C1CCCC1)CC(C)(C)C(=O)N2C", "note": "[Compound 107, 4-(9-cyclopentyl-5,7,7-trimethyl-6-oxo-6,7,8,9-tetrahydro-5H-pyrimido[4,5-b][1,4]diazepin-2-ylamino)-3-methoxybenzamide]", "IC50": "3.16 to 10"},
      {"compound": "C=C[C@@]1(C)CN(C2CCCC2)c2nc(Nc3ccc(C(=O)NN4CCN(C)CC4)cc3OC)ncc2N(C)C1=O", "note": "[Compound 244, (S)-4-(9-cyclopentyl-5,7-dimethyl-6-oxo-7-vinyl-6,7,8,9-tetrahydro-5H-pyrimido[4,5-b][1,4]diazepin-2-ylamino)-3-methoxy-N-(4-methylpiperazin-1-yl)benzamide]", "IC50": "> 10"},
      {"compound": "C=CCC1CN(C2CCCCC2)c2nc(Nc3ccc(C(=O)N[C@@H]4CCN(C)C4)cc3OC)ncc2N(C)C1=O", "note": "(stereo partly drawn) [Compound 230, 4-(7-allyl-9-cyclohexyl-5-methyl-6-oxo-6,7,8,9-tetrahydro-5H-pyrimido[4,5-b][1,4]diazepin-2-ylamino)-3-methoxy-N-((R)-1-methylpyrrolidin-3-yl)benzamide]", "IC50": "> 10"},
      {"compound": "C=CCC1CN(C2CCCCC2)c2nc(Nc3ccc(C(=O)NC4CN(C)C4)cc3OC)ncc2N(C)C1=O", "note": "(stereo not drawn) [Compound 225, 4-(7-allyl-9-cyclohexyl-5-methyl-6-oxo-6,7,8,9-tetrahydro-5H-pyrimido[4,5-b][1,4]diazepin-2-ylamino)-3-methoxy-N-(1-methylazetidin-3-yl)benzamide]", "IC50": "3.16 to 10"},
      {"compound": "C=CCC1CN(C2CCCCC2)c2nc(Nc3ccc(C(=O)N[C@H]4CCN(C)C4)cc3OC)ncc2N(C)C1=O", "note": "(stereo partly drawn) [Compound 229, 4-(7-allyl-9-cyclohexyl-5-methyl-6-oxo-6,7,8,9-tetrahydro-5H-pyrimido[4,5-b][1,4]diazepin-2-ylamino)-3-methoxy-N-((S)-1-methylpyrrolidin-3-yl)benzamide]", "IC50": "1 to 2.51"},
      {"compound": "COc1cc(C(=O)NC[C@@H]2CCCN2)ccc1Nc1ncc2c(n1)N(C1CCCC1)CCC(=O)N2C", "note": "[Compound 61, (S)-4-(9-cyclopentyl-5-methyl-6-oxo-6,7,8,9-tetrahydro-5H-pyrimido[4,5-b][1,4]diazepin-2-ylamino)-3-methoxy-N-(pyrrolidin-2-ylmethyl)benzamide]", "IC50": "> 10"},
      {"compound": "COc1cc(C(=O)N[C@H]2CCCN(C)C2)ccc1Nc1ncc2c(n1)N(C1CCCCC1)CC1(CC1)C(=O)N2C", "note": "[Compound 171, (S)-4-(9′-cyclohexyl-5′-methyl-6′-oxo-5′,6′,8′,9′-tetrahydrospiro[cyclopropane-1,7′-pyrimido[4,5-b][1,4]diazepine]-2′-ylamino)-3-methoxy-N-(1-methylpiperidin-3-yl)-benzamide]", "IC50": "< 1"},
      {"compound": "C=CC[C@H]1CN(C2CCCC2)c2nc(Nc3ccc(C(=O)NC4CN(C)C4)cc3OC)ncc2N(C)C1=O", "note": "[Compound 196, (S)-4-(7-allyl-9-cyclopentyl-5-methyl-6-oxo-6,7,8,9-tetrahydro-5H-pyrimido[4,5-b][1,4]diazepin-2-ylamino)-3-methoxy-N-(1-methylazetidin-3-yl)benzamide]", "IC50": "< 1"},
      {"compound": "C=CC1(C)CN(C2CCCC2)c2nc(Nc3ccc(C(=O)NC4CN(C)C4)cc3OC)ncc2N(C)C1=O", "note": "(stereo not drawn) [Compound 247, 4-(9-cyclopentyl-5,7-dimethyl-6-oxo-7-vinyl-6,7,8,9-tetrahydro-5H-pyrimido[4,5-b][1,4]diazepin-2-ylamino)-3-methoxy-N-(1-methylazetidin-3-yl)benzamide]", "IC50": "3.16 to 10"},
      {"compound": "COc1cc(C(=O)NC[C@H]2CCCNC2)ccc1Nc1ncc2c(n1)N(C1CCCC1)CCC(=O)N2C", "note": "[Compound 64, (S)-4-(9-cyclopentyl-5-methyl-6-oxo-6,7,8,9-tetrahydro-5H-pyrimido[4,5-b][1,4]diazepin-2-ylamino)-3-methoxy-N-(piperidin-3-ylmethyl)benzamide]", "IC50": "> 10"},
      {"compound": "C=C[C@]1(C)CN(C2CCCC2)c2nc(Nc3ccc(C(=O)NN4CCN(C)CC4)cc3OC)ncc2N(C)C1=O", "note": "[Compound 243, (R)-4-(9-cyclopentyl-5,7-dimethyl-6-oxo-7-vinyl-6,7,8,9-tetrahydro-5H-pyrimido[4,5-b][1,4]diazepin-2-ylamino)-3-methoxy-N-(4-methylpiperazin-1-yl)benzamide]", "IC50": "< 1"},
      {"compound": "CCN1CCC(NC(=O)c2ccc(Nc3ncc4c(n3)N(C3CCCCC3)CC3(CC3)C(=O)N4C)c(OC)c2)CC1", "note": "[Compound 176, 4-(9′-cyclohexyl-5′-methyl-6′-oxo-5′,6′,8′,9′-tetrahydrospiro[cyclopropane-1,7′-pyrimido[4,5-b][1,4]diazepine]-2′-ylamino)-N-(1-ethylpiperidin-4-yl)-3-methoxybenzamide]", "IC50": "> 10"},
      {"compound": "COc1cc(C(=O)N[C@@H]2CCCNC2)ccc1Nc1ncc2c(n1)N(C1CCCC1)CC(C)(C)C(=O)N2C", "note": "[Compound 100, (R)-4-(9-cyclopentyl-5,7,7-trimethyl-6-oxo-6,7,8,9-tetrahydro-5H-pyrimido[4,5-b][1,4]diazepin-2-ylamino)-3-methoxy-N-(piperidin-3-yl)benzamide]", "IC50": "3.16 to 10"},
      {"compound": "COc1cc(C(=O)NC2CCN(C(C)=O)CC2)ccc1Nc1ncc2c(n1)N(C1CCCC1)CC(C)(C)C(=O)N2C", "note": "[Compound 90, N-(1-acetylpiperidin-4-yl)-4-(9-cyclopentyl-5,7,7-trimethyl-6-oxo-6,7,8,9-tetrahydro-5H-pyrimido[4,5-b][1,4]diazepin-2-ylamino)-3-methoxybenzamide]", "IC50": "1 to 2.51"}
    ]}
  ]
}
